Key:
[1] = design: species or system rats; settings: rat, 100 mg/kg
Experimental: 5-[4-(3-Carboxy-propionylsulfamoyl)-phenylazo]-2-hydroxy-benzoic acid (1), a compound of the present invention, and sulfasalazine (used as a control; not part of the present invention) were orally dosed to rats. The degradation and the generation of their metabolites after the oral dosing were measured to be able to confirm that (1) undergoes bacterial azo reduction and yields its metabolites, 5-aminosalicylic acid (5-ASA) and C4 sulfanomide.
This experiment was performed to confirm that (1) undergoes a bacterial reduction process and yields its metabolites in in-vivo metabolism. The quantification of its metabolites was also carried out. Sulfasalazine was used as a control since the same azo bond cleavage by bacteria occurs with it, which results in 5-aminosalicylic acid and sulfapyridine as its metabolites.
A total of 7 rats were used for the experiment and methylcellulose was used as a vehicle. The dosage amount was 100 mg/kg per rat. Three rats were dosed with (1) and the other three rats were dosed with sulfasalazine. One rat was used as a control and dosed with methylcellulose. Both urine and feces were collected over 2 days and analyzed by […].
Urine was collected each day and 300 μL of aliquot from each sample was centrifuged for 10 minutes at 5000 g. 80 μL of supernatant was injected for analysis. Feces was also collected, each day and homogenized with a 1:1 mixture of water and acetonitrile. This mixture was then centrifuged for 20 minutes at 5000 g. 80 μL of supernatant was injected for analysis.
A Waters 2690 HPLC was used for sample analysis as follows:
Mobile phase programming: Gradient
Mobile phase: A=Water+0.1% TFA B=Acetonitrile+0.1% TFA
Column: Phenomenex Max RP, 80 Å, 4.6 mm×250 mm
PDA settings: Collected spectrum: 210-400nm Extracted chromatogram: 280 and/or other
Run time/sample: Approximately 50 min.

SMILES	degradation after oral dosing ([1]; in vivo)	compounds detected, day 2 collection ([1]; in vivo, po)	metabolites detected in feces, day 1 collection ([1]; in vivo, po)	metabolites detected in urine ([1]; in vivo, po)	parent compound detected in feces ([1]; in vivo, po)	parent compound detected in urine ([1]; in vivo, po)	azo reduction in vivo ([1]; po)	melting point [°C]	generation of sulfapyridine ([1]; in vivo, po)
O=C(O)CCC(=O)NS(=O)(=O)c1ccc(N=Nc2ccc(O)c(C(=O)O)c2)cc1 [(1), 5-[4-(3-Carboxy-propionylsulfamoyl)-phenylazo]-2-hydroxy-benzoic acid]	degraded and its metabolites were produced as expected	No compounds were detected	acetylated 5-ASA and C4 sulfanomide were detected	none of its metabolites were detected	not detected	only a very small amount	undergo azo reduction	192	–
O=C(O)CC(=O)NS(=O)(=O)c1ccc(N=Nc2ccc(O)c(C(=O)O)c2)cc1 [Example 3, 5-[4-(2-Carboxy-Acetylsulfamoyl)-Phenylazo]-2-Hydroxy-Benzoic Acid]	–	–	–	–	–	–	–	178	–
O=C(O)c1cc(/N=N/c2ccc(S(=O)(=O)Nc3ccccn3)cc2)ccc1O [Sulfasalazine, sulfasalazine, reference compound]	also degraded	No compounds were detected	Most rats showed acetylated 5-ASA	–	–	–	undergo azo reduction	–	only one rat showed the generation of sulfapyridine
